Source: paper PMC9317316, “Synthesis and Evaluation of Some New 4H-Pyran Derivatives as Antioxidant, Antibacterial and Anti-HCT-116 Cells of CRC, with Molecular Docking, Antiproliferative, Apoptotic and ADME Investigations” (Pharmaceuticals, 2022)
Values joined by “and” are separate entries in the source; they are usually repeats but may differ in a detail not shown here. Equal values may be shown once. Read-outs that look alike come from different tables or passages of the source.

Legend:
S. aureus (ATCC 25923) [1] = assay: Antibacterial viability (CFU) assay, IC50; format: cell-based; settings: Staphylococcus aureus, ATCC25923
Protocol: (§1) The results for the in vitro antibacterial properties of the synthesized compounds against five Gram-positive and four Gram-negative human-pathogenic strains, which were assessed by both the agar diffusion method (based on inhibition zone (IZ)) and the broth dilution bioassay (for the determination of the half-maximal inhibitory concentration (IC50) values), using ampicillin as the reference antibiotic drug, are shown in Table 2 and Table 3.
(§2) The antibacterial activity of all synthesized compounds was evaluated against the Gram-negative strains E. coli (ATCC 25966), K. pneumonia (ATCC 700603), P. aeruginosa (ATCC 27853) and S. enteric (ATCC 43972) and against the Gram-positive strains B. cereus (ATCC 14579), B. subtilis (ATCC 6633), E. faecalis (ATCC 29122), S. aureus (ATCC 25923) and S. epidermidis (ATCC 14990), using the agar diffusion method through measuring the appearance of the inhibition zone on the surface of the top agar, as reported by Berghe and Vlietinck. Ampicillin (10 µg/well) was used as the positive reference standard. Bacterial viability was also investigated by determining the colony-forming ability (CFU) of bacteria incubated at different time intervals without or with appropriate amounts of the compound, which were mixed with 2 ×10^7 CFU/mL in sterile BHI and incubated under shaking for 60 min at 37 °C. Samples were serially diluted into sterile BHI, streaked onto media agar plates and incubated for 24 h at 37 °C. The antibacterial potency of the tested compounds was expressed as the residual number of CFUs with reference to the initial inoculums. The results presented as the half-maximal (50 %) inhibitory concentration (IC50) values are the means of three different measurements.

B. subtilis (ATCC 6633) [2] = assay: Antibacterial viability (CFU) assay, IC50; format: cell-based
Protocol: as §1, §2

B. cereus (ATCC 14579) [3] = assay: Antibacterial viability (CFU) assay, IC50; format: cell-based; settings: Bacillus cereus, ATCC14579
Protocol: as §1, §2

[4] = tested on: S. epidermidis (ATCC 14990); assay: Antibacterial viability (CFU) assay, IC50; format: cell-based; settings: Staphylococcus epidermidis, ATCC14990
Protocol: as §1, §2

S. enteric (ATCC 43972) [5] = assay: Antibacterial viability (CFU) assay, IC50; format: cell-based; settings: read-out: IC50
Protocol: as §1, §2

[6] = tested on: K. pneumonia (ATCC 700603); assay: Antibacterial viability (CFU) assay, IC50; format: cell-based; settings: Klebsiella pneumoniae, ATCC700603
Protocol: as §1, §2

E. coli (ATCC 25966) [7] = assay: Antibacterial viability (CFU) assay, IC50; format: cell-based; settings: Escherichia coli, ATCC25966; E. coil (ATCC 25966)
Protocol: as §1, §2

E. faecalis (ATCC 29122) [8] = assay: Antibacterial viability (CFU) assay, IC50; format: cell-based; settings: Enterococcus faecalis, ATCC29122
Protocol: as §1, §2

[9] = tested on: P. aeruginosa (ATCC 27853); assay: Antibacterial viability (CFU) assay, IC50; format: cell-based; settings: Pseudomonas aeruginosa, ATCC27853
Protocol: as §1, §2

[10] = DPPH radical scavenging assay; settings: for IC50: 0.03 to 1 mg/mL, 1 h, mean ± SD, triplicate, read-out: IC50 (mM) for DPPH Scavenging Potency
Protocol: The IC50 values for DPPH were calculated from the plot of the scavenging effect against the compound concentration.
The compounds’ capacities to scavenge the stable radical 1,1 diphenyl-2-picrylhydrazyl (DPPH) formed in solution by donation of a hydrogen atom or an electron was investigated according to the method described by Bersuder and coworkers. Due to the fact that the initial blue/purple solution of diphenyl picrylhydrazine changes to yellow in the presence of compounds with a capacity to scavenge DPPH free radicals, this reaction is used as a measure of a compound’s ability to scavenge any free radical. Briefly, a 0.5 mL volume of DPPH ethanolic solution was mixed with an equal volume of each sample concentration (0.03 to 1 mg/mL), shaken strongly and incubated at room temperature for 1 h in darkness. The absorbance of the residual DPPH radicals was measured at 519 nm and compared to that of the control (without the tested compound). DPPH radical scavenging was calculated using the following formula: Scavenging effect (%) = (1 − Acompound/AControl) × 100, where Acompound and Acontrol are the absorbances of the tested compound and of the control, respectively. A plot of the scavenging effect (%) versus the sample concentration was also performed to determine the compound concentration providing 50% inhibition (IC50).

HCT-116 cells = assay: Cell viability (cytotoxicity, LDH release) assay; format: cell-based; settings: Homo sapiens, 24 h; for viability at 100 µg/mL: read-out: percent of viable cells
Protocol: The synthesized compounds were also examined at four concentrations (10, 25, 50 and 100 µg/mL) for their cytotoxic effects on human colorectal cancer HCT-116 cells after their incubation together for 24 h.
Cytotoxic potency was examined for a human colon cancer cell line HCT-116 (American Type Culture Collection; Manassas, VA, USA) using various amounts of each compound (10, 25, 50 and 100 µg). Samples were diluted in Dulbecco’s Modified Eagle’s Medium, consisting of 10% Fetal Bovine Serum, and added to cells grown and cultured for 24 h in a 5% CO2-humidified incubator at 37 °C. Then, the activity of lactate dehydrogenase released from damaged cells was determined in the collected supernatant aliquots using an ELISA endpoint assay (Benchmark Plus, Bio-Rad, Hercules, CA, USA). As positive and negative controls, respectively, 0.1% Triton X-100 in the assay medium and the assay medium only were used. Cell viability, shown as mean values ± SDs (n = 3), was expressed as a relative percentage of the OD values determined at 600 nm in compound-treated cells and the control.

[11] = Reducing power assay (FRAC, Fe3+ to Fe2+); settings: 0-1 mg/mL, absorbance 700 nm
Protocol: Secondly, FRAC was determined over the concentration range of 0.0−1 mg/mL via monitoring Fe^3+−Fe^2+ transformation in the presence of the studied compounds and the reference antioxidant BHT to estimate the values of efficient concentration (EC50), expressed in mM.
The reducing power of the studied compounds was assessed according to Oyaizu’s method. Briefly, different concentrations (ranging from 0 to 1 mg/mL) of each tested compound were first mixed with 1 mL of 0.2 M sodium phosphate buffer (pH 6.6) and 1 mL of 1% potassium ferricyanide (K3Fe(CN)6) and incubated at 50 °C for 20 min. After the addition of 1.25 mL of 20% trichloroacetic acid (TCA), the mixture was centrifuged for 10 min at 3000 rpm and the upper layer solution was then mixed with 0.5 mL of 0.1% fresh ferric chloride and an equal volume of deionized water. Finally, the absorption of the resulting mixture was measured at 700 nm using a UV spectrophotometer against distilled water as the blank, while butylated hydroxytoluene (BHT) was used as a positive control. The sample ferric reducing power capability was indicated by increased absorbance.

S. aureus (ATCC 25923) [12] = assay: Antibacterial agar diffusion method (inhibition zone); format: cell-based
Protocol: as §1, §2

B. subtilis (ATCC 6633) [13] = assay: as above; format: cell-based
Protocol: as §1, §2

B. cereus (ATCC 14579) [14] = assay: as above; format: cell-based
Protocol: as §1, §2

[15] = tested on: S. epidermidis (ATCC 14990); assay: as above; format: cell-based
Protocol: as §1, §2

S. enteric (ATCC 43972) [16] = assay: as above; format: cell-based
Protocol: as §1, §2

[17] = tested on: K. pneumonia (ATCC 700603); assay: as above; format: cell-based
Protocol: as §1, §2

E. coli (ATCC 25966) [18] = assay: as above; format: cell-based; settings: E. coil (ATCC 25966)
Protocol: as §1, §2

E. faecalis (ATCC 29122) [19] = assay: as above; format: cell-based
Protocol: as §1, §2

[20] = tested on: P. aeruginosa (ATCC 27853); assay: as above; format: cell-based
Protocol: as §1, §2

[21] = Bacillus subtilis, ATCC6633, B. subtilis (ATCC 6633)
[22] = read-out: Mean IC50 (µM) of cytotoxicity
[23] = read-out: Mean IC50 (µg/mL) of cytotoxicity

Compound	IC50 (S. aureus (ATCC 25923) [1]) [µM]	IC50 (B. subtilis (ATCC 6633) [2]; [21]) [µM]	IC50 (B. cereus (ATCC 14579) [3]) [µM]	IC50 [4] [µM]	IC50 (S. enteric (ATCC 43972) [5]) [µM]	IC50 [6] [µM]	IC50 (E. coli (ATCC 25966) [7]) [µM]	IC50 (E. faecalis (ATCC 29122) [8]) [µM]	IC50 [9] [µM]	melting point [°C]	IC50 [10] [mM]	DPPH Radical Scavenging Effenciency (%) at 1 mg/mL [10] [%]	viability at 100 µg/mL (HCT-116 cells) [%]	IC50 (HCT-116 cells; [22]) [µM]	IC50 (HCT-116 cells; [23]) [µg/mL]	EC50 [11] [µM]	IZ (mm) (S. aureus (ATCC 25923) [12])	IZ (mm) (B. subtilis (ATCC 6633) [13])	IZ (mm) (B. cereus (ATCC 14579) [14])	IZ (mm) [15]	also measured
COc1cccc(C2C(C#N)=C(N)OC(C)=C2C(=O)OCc2ccccc2)c1[N+](=O)[O-] (centres unmarked) [4c, 6-Amino-5-cyano-4-(3-methoxy-2-nitro-phenyl)-2-methyl-4H-pyran-3-carboxylic acid benzyl ester]	37 ± 2.02	46.3 ± 1.68	44.5 ± 0.83	30.4 ± 1	100 ± 2.61	112 ± 1.42	93.7 ± 4.98	41.1 ± 2.18	85.9 ± 2.61	190 to 192	2.24 ± 0.05	57.10 ± 1.56	11 to 32.5	102 ± 4.82	43 ± 2.03	1230 ± 67	15.50 ± 0.71 mm	11.00 ± 1.41	14.00 ± 1.41	16.65 ± 0.50 mm	IZ (mm) (S. enteric (ATCC 43972) [16]): 8.5 ± 0.7 mm; IZ (mm) [17]: 3.5 ± 0.7 mm; IZ (mm) (E. coli (ATCC 25966) [18]): 2.5 ± 0.71 mm; IZ (mm) (E. faecalis (ATCC 29122) [19]): 10.00 ± 1.41 mm; IZ (mm) [20]: 7.5 ± 0.7 mm
CCOC(=O)C1=C(C)OC(N)=C(C#N)C1c1cccc(-c2ccccc2)c1 (centres unmarked) [4e, 6-Amino-4-biphenyl-3-yl-5-cyano-2-methyl-4H-pyran-3-carboxylic acid ethyl ester]	34.8 ± 2.16	37.7 ± 1.58	33.6 ± 1.58	30.8 ± 1.58	96.1 ± 2.5	90.7 ± 2.78	103 ± 3.05	37.3 ± 2.16	88 ± 2.78	186 to 190	1.65 ± 0.097	39.25 ± 1.06	11 to 32.5	138 ± 9.78	49.7 ± 3.53	305 ± 39	16.50 ± 2.10 mm	20.50 ± 0.71	23.00 ± 1.41	20.50 mm and 20.50 ± 2.12 mm	IZ (mm) (S. enteric (ATCC 43972) [16]): 3.5 ± 0.7 mm; IZ (mm) [17]: 2.5 ± 0.7 mm; IZ (mm) (E. coli (ATCC 25966) [18]): 2.7 ± 0.35 mm; IZ (mm) (E. faecalis (ATCC 29122) [19]): 15.50 ± 0.71 mm; IZ (mm) [20]: 4.5 ± 0.7 mm
COC(=O)C1=C(C)OC(N)=C(C#N)C1c1cccc(O)c1Cl (centres unmarked) [4f, 6-Amino-4-(2-chloro-3-hydroxy-phenyl)-5-cyano-2-methyl-4H-pyran-3-carboxylic acid methyl ester]	38.4 ± 1.31	23.6 to 36.8	42.4 ± 2.65	33 ± 2.65	94.2 ± 3.43	82 ± 3.43	95.7 ± 5.61	34.6 ± 0.59	105 ± 2.81	238 to 240	3.34 ± 0.131	43.75 ± 1.77	55.5	333 ± 13.4	107 ± 4.29	398 ± 45	16.50 ± 0.71 mm	19.50 ± 0.71	22.50 ± 0.71	14.50 ± 0.71 mm	IC50 (B. subtilis (ATCC 6633) [2]; B. subtilis (ATCC 6633)): 36.8 ± 0.87 µM; IZ (mm) (S. enteric (ATCC 43972) [16]): 6.5 ± 0.7 mm; IZ (mm) [17]: 4.5 ± 0.7 mm; IZ (mm) (E. coli (ATCC 25966) [18]): 7.5 ± 0.71 mm; IZ (mm) (E. faecalis (ATCC 29122) [19]): 19.00 ± 1.41 mm; IZ (mm) [20]: 6.0 ± 1.4 mm
CCOC(=O)C1=C(C)OC(N)=C(C#N)C1c1c(OC)cc(OC)cc1OC (centres unmarked) [4h, 6-Amino-5-cyano-2-methyl-4-(2,4,6-trimethoxy-phenyl)-4H-pyran-3-carboxylic acid ethyl ester]	32.7 ± 0.93	50.1 ± 2.83	46.5 ± 1.52	35.8 ± 1.52	112 ± 2.94	118 ± 2.67	114 ± 0.8	45.9 ± 0.75	89.5 ± 2.94	196 to 198	1.31 ± 0.075	33.50 ± 2.12	11 to 32.5	185 ± 11.5	69.2 ± 4.29	221 ± 11	17.50 mm and 17.50 ± 0.71 mm	6.00 ± 1.41	4.50 ± 0.71	16.50 ± 0.71 mm	IZ (mm) (S. enteric (ATCC 43972) [16]): 5.5 ± 0.7 mm; IZ (mm) [17]: 3.5 ± 0.7 mm; IZ (mm) (E. coli (ATCC 25966) [18]): 1.5 ± 0.71 mm; IZ (mm) (E. faecalis (ATCC 29122) [19]): 8.00 ± 1.41 mm; IZ (mm) [20]: 4.5 ± 0.7 mm
